Reference: patent publication US20250345295A1, “LMK235 COMPOSITIONS AND METHODS” (UNM Rainforest Innovations, priority 2024, published 2025)
Several values for one entry are separate records, joined by “and”; a condition that tells them apart may be missing. Equal entries are not always repeated.

Test system: differentially expressed genes in TG
Test: RNAseq gene expression profiling of TG
Format: in vivo, mouse
Conditions: for Log2FC Ascl1 / Log2FC Klf2 / Log2FC Klf4 / Log2FC Klf5 / Log2FC Klf6 / Log2FC Klf7 / Log2FC Klf9 / Log2FC Klf13 / Log2FC Klf15 / Log2FC Klf16 / Log2FC L-Myc (Mycl) / Log2FC Lin28b / Log2FC Myt1l / Log2FC N-Myc (Mycn) / Log2FC Nanog / Log2FC NeuroD1 / Log2FC Sirt1 / Log2FC Sox2 / Log2FC Sox11 / Log2FC Stat3 / Log2FC c-Myc (Myc): TG
Procedure: Gene expression profiling was performed on TG from mice with/without nerve injury during the acute phase (three weeks post injury) in TIC mice and after transition to chronic pain (10 weeks post injury) in FRICT-ION mice by Quick Biology Inc. (Monrovia, CA).
Total RNA from ipsilateral TG was isolated using the Rneasy Mini Kit (Qiagen, Valencia, CA). Gene expression profiling and analysis with RNA was done by Quick Biology Inc. (Monrovia, CA). RNAseq library preparation was performed by Quick Biology Inc. (Monrovia, CA), sequencing was performed using an Illumina HiSeq 4000 at 40 million reads per sample. The reads were first mapped to the latest UCSC transcript set using Bowtie2 version 2.1.0 and the gene expression level was estimated using RSEM v1.2.15. Differentially expressed genes were identified using the edgeR program. Genes showing altered expression with p<0.05 were considered differentially expressed.

[1] = TG RNAseq, LMK235-treated vs untreated FRICT-ION mice
[2] = TG RNAseq, male FRICT-ION mice treated with LMK235 vs Vehicle, week 10
[3] = TG RNAseq, male FRICT-ION mice treated with LMK235 vs naive, week 10
[4] = LMK235 Treated FRICT-ION versus Naive
[5] = LMK235 Treated FRICT-ION versus Untreated FRICT-ION

In the case of `Cc1cc(C)cc(C(=O)NOCCCCCC(=O)NO)c1` [LMK235, N-[[6-(Hydroxyamino)-6-oxohexyl]oxy]-3,5-dimethyl-benzamide], the “Nav3 downregulated, fold” value [1] is reported as 1.19 fold, the “Net1 upregulated, fold” value [1] is reported as 1.12 fold and the “Neurod4 upregulated, fold” value [1] is reported as 1.57 fold. The “Nf2 upregulated, fold” value [1] was 1.04 fold, the “Ngef downregulated, fold” value [1] was 1.34 fold and the “Nkain2 downregulated, fold” value [1] was 1.14 fold. For the same molecule, the “Nova1 upregulated, fold” value [1] was 1.04 fold, the “Nras downregulated, fold” value [1] was 1.03 fold and the “Nrg2 upregulated, fold” value [1] was 1.10 fold. The “Nrg3 downregulated, fold” value [1] was 1.00 fold, the “Ntrk1 upregulated, fold” value [1] was 1.80 fold and the “Nts downregulated, fold” value [1] was 1.74 fold. For the same molecule, the “Scn2a Scn2a1 downregulated, fold” value [1] was 1.04 fold, the “Scn3a downregulated, fold” value [1] was 1.01 fold and the “Scn7a downregulated, fold” value [1] was 1.07 fold. The “Scn8a upregulated, fold” value [1] was 1.05 fold, the “Scn9a upregulated, fold” value [1] was 1.29 fold and the “Trpc6 upregulated, fold” value [1] was 1.08 fold. The “Trpm3 upregulated, fold” value [1] was 1.19 fold, the “Trpm4 upregulated, fold” value [1] was 1.05 fold and the “Trpv6 downregulated, fold” value [1] was 1.19 fold. The “Fold change 1700047I17Rik2” value [2] was 3.82 fold, the “Fold change 8430408G22Rik” value [2] was 2.46 fold and the “Fold change Acta2” value [2] was 2.01 fold. For the same molecule, the “Fold change Amy2a5” value [2] was 2.03 fold, the “Fold change Armc3” value [2] was 2.04 fold and the “Fold change Asb4” value [2] was 1.53 fold. The “Fold change C1ql2” value [2] was 2.34 fold, the “Fold change C1ql4” value [2] was 4.76 fold and the “Fold change Calcb” value [2] was 2.17 fold. The “Fold change Ccdc153” value [2] was 2.32 fold, the “Fold change Cckbr” value [2] was −2.32 fold and the “Fold change Crhbp” value [2] was 2.79 fold. The “Fold change Cutal” value [2] was 2.10 fold, the “Fold change Cyp26b1” value [2] was 2.99 fold and the “Fold change Cytl1” value [2] was 2.14 fold. The “Fold change Dmrt3” value [2] was 2.46 fold, the “Fold change Eif3j2” value [2] was 3.88 fold and the “Fold change Evi2a-evi2b” value [2] was 136.10 fold. The “Fold change Fev” value [2] was 2.35 fold, the “Fold change Gata3” value [2] was 3.74 fold and the “Fold change Gh” value [2] was −25.22 fold. For the same molecule, the “Fold change Gm833” value [2] was 2.45 fold, the “Fold change Gm8221” value [2] was 241.23 fold and the “Fold change Gm13306” value [2] was 48.23 fold. The “Fold change Gpx2” value [2] was 3.17 fold, the “Fold change Gucy2f” value [2] was 2.13 fold and the “Fold change H19” value [2] was 2.05 fold. For the same molecule, the “Fold change Hdac5” value [2] was −2.03 fold, the “Fold change Hist2h3c2” value [2] was 128.58 fold and the “Fold change Hoxb9” value [2] was −16.50 fold and −16.5 fold. The “Fold change Hoxc8” value [2] was −8.22 fold, the “Fold change Hoxd8” value [2] was −4.14 fold and the “Fold change Irx4” value [2] was 2.51 fold. The “Fold change Isl1” value [2] was 2.30 fold, the “Fold change Kcnmb1” value [2] was 2.15 fold and the “Fold change Mgl2” value [2] was 2.39 fold. For the same molecule, the “Fold change Myom1” value [2] was 2.01 fold, the “Fold change Nkx6-3” value [2] was 2.10 fold and the “Fold change Onecut3” value [2] was 2.22 fold. For the same molecule, the “Fold change P2rx2” value [2] was −1.84 fold, the “Fold change P2rx4” value [2] was −2.08 fold and the “Fold change Pappa2” value [2] was 2.16 fold. For the same molecule, the “Fold change Pde4c” value [2] was 2.45 fold, the “Fold change Ppp1r1c” value [2] was 2.51 fold and the “Fold change Sec16b” value [2] was 1.98 fold. The “Fold change Serpina3h” value [2] was 2.51 fold, the “Fold change Shox2” value [2] was 2.49 fold and the “Fold change Slc6a4” value [2] was 4.38 fold. For the same molecule, the “Fold change Slc18a2” value [2] was 2.01 fold, the “Fold change Slfn4” value [2] was −2.32 fold and the “Fold change Sp8” value [2] was 2.42 fold. For the same molecule, the “Fold change Tmprss11d” value [2] was 2.98 fold, the “Fold change Tph2” value [2] was 4.18 fold and the “Fold change Tyrp1” value [2] was 3.03 fold. The “Fold change Vmn2r84” value [2] was 2.71 fold, the “Fold change lc6a2” value [2] was 2.91 fold and the “Gh downregulated, fold” value [2] was 25.22 fold. The “Hoxb9 downregulated, fold” value [2] was 16.50 fold, the “Hoxc8 downregulated, fold” value [2] was 8.22 fold and the “Hoxd8 downregulated, fold” value [2] was 4.14 fold. For the same molecule, the “P2rx4 downregulated, fold” value [2] was 2.08 fold, the “Slfn4 downregulated, fold” value [2] was 2.32 fold and the “Fold change 1500015O10Rik” value [3] was 4.68 fold. The “Fold change 4833423E24Rik” value [3] was 2.10 fold, the “Fold change Ache” value [3] was −1.12 fold and the “Fold change Ackr4” value [3] was 3.74 fold. For the same molecule, the “Fold change Aqp1” value [3] was 7.41 fold and 7.4 fold, the “Fold change Calml4” value [3] was 2.88 fold and the “Fold change Car12” value [3] was 6.21 fold. For the same molecule, the “Fold change Ccdc135” value [3] was 2.84 fold, the “Fold change Cldn1” value [3] was 2.48 fold and the “Fold change Cldn2” value [3] was 8.46 fold. The “Fold change Col8a2” value [3] was 3.06 fold, the “Fold change Crhr2” value [3] was 2.35 fold and the “Fold change Enpp2” value [3] was 2.22 fold. The “Fold change F5” value [3] was 6.19 fold, the “Fold change Fap” value [3] was 3.16 fold and the “Fold change Folr1” value [3] was 11.92 fold and 11.91 fold. The “Fold change Gmnc” value [3] was 2.40 fold, the “Fold change Gvin1” value [3] was 5.55 fold and the “Fold change Hdac5” value [3] was −1.13 fold. The “Fold change Hdac10” value [3] was −1.20 fold, the “Fold change Igfbpl1” value [3] was 2.39 fold and the “Fold change Il1a” value [3] was 2.21 fold. For the same molecule, the “Fold change Inmt” value [3] was 6.34 fold, the “Fold change Kcne2” value [3] was 17.29 fold and the “Fold change Kcnj13” value [3] was 7.84 fold. For the same molecule, the “Fold change Kl” value [3] was 5.00 fold, the “Fold change Krt18” value [3] was 6.56 fold and the “Fold change Lbp” value [3] was 3.97 fold. The “Fold change Lum” value [3] was 2.08 fold, the “Fold change Mfrp” value [3] was 4.30 fold and the “Fold change Otx2” value [3] was 5.17 fold. For the same molecule, the “Fold change Postn” value [3] was 2.24 fold, the “Fold change Prr32” value [3] was 5.41 fold and the “Fold change Rbm14-rbm4” value [3] was 66.16 fold. The “Fold change Slc4a5” value [3] was 4.83 fold, the “Fold change Sostdc1” value [3] was 15.70 fold and the “Fold change Tgtp1” value [3] was 2.49 fold. The “Fold change Tmem72” value [3] was 6.47 fold, the “Fold change Tmprss11a” value [3] was 37.90 fold and the “Fold change Tnfsf13” value [3] was 2.14 fold. For the same molecule, the “Fold change Ttr” value [3] was 23.21 fold, the “Fold change Wfdc2” value [3] was 4.61 fold and the “Log2FC Ascl1” value [4] was 1.16 Log2FC. For the same molecule, the “Log2FC Klf2” value [4] was −1.57 Log2FC, the “Log2FC Klf4” value [4] was −1.23 Log2FC and the “Log2FC Klf5” value [4] was 1.25 Log2FC. The “Log2FC Klf6” value [4] was 1.03 Log2FC, the “Log2FC Klf7” value [4] was 1.12 Log2FC and the “Log2FC Klf9” value [4] was −1.03 Log2FC. The “Log2FC Klf13” value [4] was −1.16 Log2FC, the “Log2FC Klf15” value [4] was −1.26 Log2FC and the “Log2FC Klf16” value [4] was −1.08 Log2FC. The “Log2FC L-Myc (Mycl)” value [4] was 1.08 Log2FC, the “Log2FC Lin28b” value [4] was −1.13 Log2FC and the “Log2FC Myt1l” value [4] was 1.03 Log2FC. For the same molecule, the “Log2FC N-Myc (Mycn)” value [4] was 1.63 Log2FC, the “Log2FC Nanog” value [4] was 1.01 Log2FC and the “Log2FC NeuroD1” value [4] was 1.26 Log2FC. The “Log2FC Sirt1” value [4] was 1.17 Log2FC, the “Log2FC Sox2” value [4] was 1.25 Log2FC and the “Log2FC Sox11” value [4] was 1.05 Log2FC. For the same molecule, the “Log2FC Stat3” value [4] was −1.00 Log2FC, the “Log2FC c-Myc (Myc)” value [4] was 1.14 Log2FC and the “Log2FC Ascl1” value [5] was 1.05 Log2FC. For the same molecule, the “Log2FC Klf2” value [5] was 1.20 Log2FC, the “Log2FC Klf4” value [5] was 1.13 Log2FC and the “Log2FC Klf5” value [5] was −1.30 Log2FC. For the same molecule, the “Log2FC Klf6” value [5] was 1.05 Log2FC, the “Log2FC Klf7” value [5] was 1.15 Log2FC and the “Log2FC Klf9” value [5] was −1.05 Log2FC. For the same molecule, the “Log2FC Klf13” value [5] was −1.17 Log2FC, the “Log2FC Klf15” value [5] was −1.16 Log2FC and the “Log2FC Klf16” value [5] was −1.24 Log2FC. The “Log2FC L-Myc (Mycl)” value [5] was −1.54 Log2FC, the “Log2FC Lin28b” value [5] was 1.07 Log2FC and the “Log2FC Myt1l” value [5] was −1.17 Log2FC. The “Log2FC N-Myc (Mycn)” value [5] was 1.00 Log2FC, the “Log2FC Nanog” value [5] was −1.03 Log2FC and the “Log2FC NeuroD1” value [5] was 1.21 Log2FC. For the same molecule, the “Log2FC Sirt1” value [5] was 1.02 Log2FC, the “Log2FC Sox2” value [5] was 1.07 Log2FC and the “Log2FC Sox11” value [5] was −1.21 Log2FC. The “Log2FC Stat3” value [5] was −1.04 Log2FC and the “Log2FC c-Myc (Myc)” value [5] was −1.03 Log2FC.
